Data set [1] deals with Mycobacterium tuberculosis H37Ra. Details: method as in Nawrot et al. 2021. The settings on record: previously published N‐pyridinyl benzamides; ref Nawrot et al. 2021; cited from earlier work.
Data set [2] shares this test system. Kind of data set: Antimycobacterial microdilution broth MIC (resazurin), Mtb H37Ra. The data set is classed as cell-based. As to conditions: for MIC: Mycobacterium tuberculosis, H37RA, read-out: MIC Mtb H37Ra.
Data set [3] deals with Mycolicibacterium smegmatis DSM 43465. Kind of data set: Antimycobacterial microdilution broth MIC (resazurin), M. smegmatis. Format: cell-based. As to conditions: DSM43465, read-out: MIC M. smegmatis. A general note: In broth dilution the organism is exposed to a series of concentrations in liquid medium.
The test system of data set [4] is Mycolicibacterium aurum DSM 43999. Kind of data set: Antimycobacterial microdilution broth MIC (resazurin), M. aurum. The data set is classed as cell-based. As to conditions: DSM43999, read-out: MIC M. aurum.
In data set [5] the test system is HepG2 cell line. In words: Cytotoxicity CellTiter 96, HepG2. Format: cell-based, human. As to conditions: Homo sapiens, HepG2, 24 h, 24 h incubation; ^c compound precipitated in the testing medium; ^d over the limit of tested concentrations.
Data set [6] relates to Staphylococcus aureus CCM 4223, ATCC 29213. Kind of data set: Antibacterial microdilution broth MIC, SA. Format: cell-based. As to conditions: Staphylococcus aureus.
In data set [7] the test system is Staphylococcus aureus subsp. aureus CCM 4750, ATCC 43300 (MRSA). Kind of data set: Antibacterial microdilution broth MIC, MRSA. As to conditions: Staphylococcus aureus. Format: cell-based.
Data set [8] concerns Staphylococcus epidermidis CCM 4418, ATCC 12228. Kind of data set: Antibacterial microdilution broth MIC, SE. Format: cell-based.
The subject of data set [9] is Enterococcus faecalis CCM 4224, ATCC 29212. In words: Antibacterial microdilution broth MIC, EF. Format: cell-based.
In data set [10] the test system is Escherichia coli CCM 3954, ATCC 25922. In words: Antibacterial microdilution broth MIC, EC. Format: cell-based.
Data set [11] relates to Acinetobacter baumannii DSM 30007, ATCC 19606. Kind of data set: Antibacterial microdilution broth MIC, ACI. Format: cell-based.
Data set [12] relates to Pseudomonas aeruginosa CCM 3955, ATCC 27853. Kind of data set: Antibacterial microdilution broth MIC, PA. The data set is classed as cell-based.
Data set [13] relates to Candida albicans CCM 8320, ATCC 24433. In words: Antifungal microdilution broth MIC, CA.
Data set [14] deals with Candida krusei CCM 8271, ATCC 6258. In words: Antifungal microdilution broth MIC, CK. The settings on record: Pichia kudriavzevii.
Data set [15] deals with Candida parapsilosis CCM 8260, ATCC 22019. Kind of data set: Antifungal microdilution broth MIC, CP. As to conditions: Lodderomyces parapsilosis.
The test system of data set [16] is Candida tropicalis CCM 8264, ATCC 750. In words: Antifungal microdilution broth MIC, CT.
Data set [17] concerns Aspergillus fumigatus ATCC 204305. In words: Antifungal microdilution broth MIC, AF.
In data set [18] the test system is Lichtheimia corymbifera CCM 8077. Kind of data set: Antifungal microdilution broth MIC, LC.
For data set [19], the system named is Trichophyton interdigitale CCM 8377, ATCC 9533. In words: Antifungal microdilution broth MIC, TI. The settings on record: Trichophyton interdigitale.
Data set [20] has as its system Aspergillus flavus CCM 8363. In words: Antifungal microdilution broth MIC, AFla.
For data set [21], the system named is Klebsiella pneumoniae CCM 4415, ATCC 10031. In words: Antibacterial microdilution broth MIC, KP.
Setting [22] is: ATCC204305, 24 h, read-out: MIC AF 24h.
Where [23] appears, read: ATCC204305, 48 h, read-out: MIC AF 48h.
Where [24] appears, read: CCM8077, 24 h, read-out: MIC LC 24h.
Where [25] appears, read: CCM8077, 48 h, read-out: MIC LC 48h.
Where [26] appears, read: CCM8363, 24 h, read-out: MIC AFla 24h.
Where [27] appears, read: CCM8363, 48 h, read-out: MIC AFla 48h.

≈ marks a conversion by molar mass, not a printed value. Where two headings read alike, the source gives them in different places. Where only a bound is given, the exact number is not on record here.

Consider `COc1cccc(C(=O)Nc2cccc(Cl)n2)c1` [C00003 R1=6-Cl,R2=3-OMe], for which the “MIC Mtb H37Ra (μg/mL), previously published compounds” value (from here on “MIC Mtb H37Ra (μg/mL)”) in [1] was 31.25 µg/mL (≈ 119 µM).
On to `COc1cccc(C(=O)Nc2ccc(Cl)cn2)c1` [C00003 R1=5-Cl,R2=3-OMe], for which the “MIC Mtb H37Ra (μg/mL)” value in data set [1] was 62.5 µg/mL (≈ 238 µM).
Turning to `O=C(Nc1ccc(Cl)cn1)c1ccc(Cl)cc1` [C00003 R1=5-Cl,R2=4-Cl], the “MIC Mtb H37Ra (μg/mL)” value in data set [1] is more than 500 µg/mL.
`O=C(Nc1ccc(Cl)cn1)c1cccc(C(F)(F)F)c1` [C00003 R1=5-Cl,R2=3-CF3]: in data set [1], the “MIC Mtb H37Ra (μg/mL)” value was 7.81 µg/mL (≈ 26 µM).
As for `O=C(Nc1ccccn1)c1cccc(C(F)(F)F)c1` [C00003 R1=H,R2=3-CF3], the “MIC Mtb H37Ra (μg/mL)” value in data set [1] was 31.25 µg/mL (≈ 117 µM).
For the compound `COc1ccccc1C(=O)Nc1ccc(Cl)cn1` [C00003 R1=5-Cl,R2=2-OMe], the “MIC Mtb H37Ra (μg/mL)” value in data set [1] is 31.25 µg/mL (≈ 119 µM).
In the case of `O=C(Nc1ccccn1)c1ccccc1` [C00003 R1=H,R2=H], the “MIC Mtb H37Ra (μg/mL)” value in data set [1] is 250 µg/mL (≈ 1260 µM).
For `O=C(Nc1cccc(Cl)n1)c1ccccc1` [C00003 R1=6-Cl,R2=H], the “MIC Mtb H37Ra (μg/mL)” value in data set [1] was 125 µg/mL (≈ 537 µM).
Regarding `O=C(Nc1ccccn1)c1cccc(Cl)c1` [C00003 R1=H,R2=3-Cl], the “MIC Mtb H37Ra (μg/mL)” value in data set [1] was 62.5 µg/mL (≈ 269 µM).
`O=C(Nc1ccc(Cl)cn1)c1ccccc1Cl` [C00003 R1=5-Cl,R2=2-Cl]: in [1], the “MIC Mtb H37Ra (μg/mL)” value is more than 500 µg/mL.
As to `O=C(Cc1ccccc1Cl)Nc1ccccn1` [Compound 13, 2-(2-chlorophenyl)-N-(pyridin-2-yl)acetamide], the MIC (commonly the smallest concentration in the dilution series that meets the test's criterion for growth inhibition) in data set [2] (Calculated from MIC (μg/mL)) was 253 µM; in data set [2], 62.5 µg/mL; in data set [3] it was more than 500 µg/mL; in data set [4], 250 µg/mL (≈ 1010 µM); in data set [6] (24 h, read-out: MIC SA 24h), more than 500 µM; in data set [6] (48 h, read-out: MIC SA 48h), more than 500 µM. Moreover, the MIC is more than 500 µM in data set [7] (24 h, read-out: MIC MRSA 24h); more than 500 µM in data set [7] (48 h, read-out: MIC MRSA 48h); 500 µM (≈ 123 µg/mL) in data set [8] (24 h, read-out: MIC SE 24h); 500 µM (≈ 123 µg/mL) in [8] (48 h, read-out: MIC SE 48h); more than 500 µM in data set [9] (24 h, read-out: MIC EF 24h); more than 500 µM in data set [9] (48 h, read-out: MIC EF 48h). Further, the MIC is more than 500 µM in data set [10] (24 h, read-out: MIC EC 24h); more than 500 µM in [10] (48 h, read-out: MIC EC 48h); more than 500 µM in data set [11] (24 h, read-out: MIC ACI 24h); more than 500 µM in data set [11] (48 h, read-out: MIC ACI 48h); more than 500 µM in [12] (24 h, read-out: MIC PA 24h); more than 500 µM in data set [12] (48 h, read-out: MIC PA 48h). Moreover, the MIC is more than 500 µM in data set [13] (24 h, read-out: MIC CA 24h); more than 500 µM in data set [13] (48 h, read-out: MIC CA 48h); more than 500 µM in data set [14] (24 h, read-out: MIC CK 24h); more than 500 µM in data set [14] (48 h, read-out: MIC CK 48h); more than 500 µM in [15] (24 h, read-out: MIC CP 24h); more than 500 µM in [15] (48 h, read-out: MIC CP 48h). Also, the MIC was more than 500 µM in data set [16] (24 h, read-out: MIC CT 24h); more than 500 µM in data set [16] (48 h, read-out: MIC CT 48h); more than 500 µM in data set [17] (setting [22]); more than 500 µM in data set [17] (setting [23]); more than 500 µM in data set [18] (setting [24]); more than 500 µM in data set [18] (setting [25]). Further, the MIC in [19] (72 h, read-out: MIC TI 72h) was 500 µM (≈ 123 µg/mL); in [19] (120 h, read-out: MIC TI 120h), 500 µM (≈ 123 µg/mL); in data set [20] (setting [26]), more than 500 µM; in data set [20] (setting [27]), more than 500 µM. Also, inhibition in [5] was half-maximal at 755 µM (IC50). In data set [21], the “MIC KP 24h” value was more than 500 µM. Moreover, the “MIC KP 48h” value in data set [21] is more than 500 µM.
`O=C(Cc1ccc(Cl)cc1)Nc1ccccn1` [Compound 19]: the MIC in [2] (Calculated from MIC (μg/mL)) was 127 µM; in data set [2], 31.2 µg/mL; in [3], 31.2 µg/mL (≈ 127 µM); in data set [4], more than 500 µg/mL; in [6] (24 h, read-out: MIC SA 24h), 500 µM (≈ 123 µg/mL); in data set [6] (48 h, read-out: MIC SA 48h) it was 500 µM (≈ 123 µg/mL). Also, the MIC in [7] (24 h, read-out: MIC MRSA 24h) was more than 500 µM; in data set [7] (48 h, read-out: MIC MRSA 48h), more than 500 µM; in data set [8] (24 h, read-out: MIC SE 24h) it was 125 µM (≈ 30.8 µg/mL); in data set [8] (48 h, read-out: MIC SE 48h) it was 125 µM (≈ 30.8 µg/mL); in [9] (24 h, read-out: MIC EF 24h), more than 500 µM; in data set [9] (48 h, read-out: MIC EF 48h), more than 500 µM. The MIC in data set [10] (24 h, read-out: MIC EC 24h) was more than 500 µM; in [10] (48 h, read-out: MIC EC 48h) it was more than 500 µM; in [11] (24 h, read-out: MIC ACI 24h), more than 500 µM; in [11] (48 h, read-out: MIC ACI 48h) it was more than 500 µM; in data set [12] (24 h, read-out: MIC PA 24h), more than 500 µM; in data set [12] (48 h, read-out: MIC PA 48h), more than 500 µM. In addition, the MIC is more than 500 µM in data set [13] (24 h, read-out: MIC CA 24h); more than 500 µM in data set [13] (48 h, read-out: MIC CA 48h); 500 µM (≈ 123 µg/mL) in [14] (24 h, read-out: MIC CK 24h); 500 µM (≈ 123 µg/mL) in data set [14] (48 h, read-out: MIC CK 48h); 500 µM (≈ 123 µg/mL) in data set [15] (24 h, read-out: MIC CP 24h); 500 µM (≈ 123 µg/mL) in data set [15] (48 h, read-out: MIC CP 48h). Further, the minimal inhibitory concentration (MIC) in [16] (24 h, read-out: MIC CT 24h) is more than 500 µM; in data set [16] (48 h, read-out: MIC CT 48h), more than 500 µM; in [17] (setting [22]) it was more than 500 µM; in [17] (setting [23]), more than 500 µM; in data set [18] (setting [24]), more than 500 µM; in [18] (setting [25]), more than 500 µM. Moreover, the MIC in data set [19] (72 h, read-out: MIC TI 72h) is 250 µM (≈ 61.7 µg/mL); in data set [19] (120 h, read-out: MIC TI 120h) it was 250 µM (≈ 61.7 µg/mL); in data set [20] (setting [26]) it was more than 500 µM; in data set [20] (setting [27]), more than 500 µM. For the same compound, in [2] (SI = HepG2 IC50 (μM)/MIC MtbH37Ra (μM), calculated for compounds with MIC ≤ 31.25 μg/mL), the “SI (selectivity index)” value is 2.6. Further, the IC50 (in general, the concentration that inhibits the measured activity by half) in [5] turned out to be 333 µM. Also, the “MIC KP 24h” value in [21] was more than 500 µM. In addition, the “MIC KP 48h” value in [21] was more than 500 µM.
Consider `COc1ccccc1C(=O)Nc1ccccn1` [C00003 R1=H,R2=2-OMe], for which, in data set [1], the “MIC Mtb H37Ra (μg/mL)” value was 31.25 µg/mL (≈ 137 µM).

The values above are taken from publication PMC11748363, “Antimicrobial and Antiproliferative Properties of 2‐Phenyl‐N‐(Pyridin‐2‐yl)acetamides” (Chemical Biology & Drug Design, 2025).
